Laboratory results: patent US5356920A, “Imidazol-2-yl derivatives of substituted bicyclic compounds” (priority 1990, dated 1994)

Experiments:
[1] = target: T1, acyl CoA:cholesterol acyltransferase (ACAT-EC 2.3.1.26) (Oryctolagus cuniculus, UniProt A0A5F9CPP4); assay: ACAT inhibition in microsomes from atherosclerotic rabbit thoracic aorta (intima media); assay type: biochemical; conditions: microsomes from atherosclerotic rabbit thoracic aortas; limits p = 0.95
T1 construct: microsomal preparations from atherosclerotic rabbit thoracic aorta (intima media); from tissue; host or cells: microsomes from atherosclerotic rabbit thoracic aorta (intima media)
T1 sequence (A0A5F9CPP4 1-555): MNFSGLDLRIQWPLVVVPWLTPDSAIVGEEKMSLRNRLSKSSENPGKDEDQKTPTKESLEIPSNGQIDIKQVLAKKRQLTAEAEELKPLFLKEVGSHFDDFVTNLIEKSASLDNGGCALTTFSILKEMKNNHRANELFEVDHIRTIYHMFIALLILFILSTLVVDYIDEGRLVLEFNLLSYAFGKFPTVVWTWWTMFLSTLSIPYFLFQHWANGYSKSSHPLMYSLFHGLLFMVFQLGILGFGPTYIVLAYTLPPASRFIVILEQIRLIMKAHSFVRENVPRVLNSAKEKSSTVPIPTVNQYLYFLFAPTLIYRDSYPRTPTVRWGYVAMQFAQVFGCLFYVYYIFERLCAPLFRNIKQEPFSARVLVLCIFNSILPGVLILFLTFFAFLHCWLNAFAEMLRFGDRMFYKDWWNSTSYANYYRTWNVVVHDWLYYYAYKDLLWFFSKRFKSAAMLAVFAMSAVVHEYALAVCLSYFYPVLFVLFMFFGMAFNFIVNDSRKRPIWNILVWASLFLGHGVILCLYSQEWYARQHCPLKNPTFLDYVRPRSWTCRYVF

[2] = orientative acute toxicity (LD50), single oral administration, assessed on the seventh day, mice; conditions: mouse, in vivo, nine hours food deprived
Protocol: The toxicity of the compounds of the invention is negligible, therefore they can be safely used in therapy. Nine hours food deprived mice and rats were treated orally with single administration of increasing doses, then housed and normally fed. The orientative acute toxicity (LD50) was assessed on the seventh day after the treatment, for instance a LD50 greater than 800 mg/kg was found in mice for the compound coded as FCE 27116.

[3] = target: T1, acyl CoA:cholesterol acyltransferase (ACAT-EC 2.3.1.26); conditions: Hudson H., Day A., Atherosclerosis (1982) 45, 109; cited from earlier work

Row | IC50 [1] [nM] | SMILES | LD50 at 168 h [2] [mg/kg] | inhibitory activity in vitro (rabbit arterial microsomes) [3]
1 | 82.2 | CC(C)c1cccc(C(C)C)c1NC(=O)C(C)(C)CCCOc1ccc2c(c1)C=C(c1nccn1C)C(CCc1ccc(F)cc1F)O2 (racemic) [FCE 27113, (+-)-5-[2-(2-(2,4-difluorophenyl)ethyl)-3-(1-methyl-1H-imidazol-2-yl)-2H-1-benzopyran-6-yl)oxy-2,2-dimethyl-N-(2,6-diisopropylphenyl)pentanamide] |  | 
2 |  | CC(C)(Oc1ccc(CCNC(=O)c2ccc(Cl)cc2)cc1)C(=O)O [Bezafibrate] |  | inhibitory activity in vitro (rabbit arterial microsomes) has been already demonstrated
3 | 85.1 | CC(C)c1cccc(C(C)C)c1NC(=O)C(C)(C)CCCOc1ccc2c(c1)C=C(c1nccn1C)C(CCc1ccccc1)O2 (racemic) [FCE 26734, (+-)-5-[2-(2-phenylethyl)-3-(1-methyl-1H-imidazol-2-yl)-2H-1-benzopyran-6-yl]oxy-2,2-dimethyl-N-(2,6-diisopropylphenyl)pentanamide] |  | 
4 | 1060 | CCCC1Oc2ccc(OCCCC(C)(C)C(=O)OCC)cc2C=C1c1nccn1C (racemic) [FCE 25184, ethyl (+-)-5-[2-propyl-3-(1-methyl-1H-imidazol-2-yl)-2H-benzopyran-6-yl]oxy-2,2-dimethylpentanoate, reference compound] |  | 
5 | 66.8 | CCOC(=O)C1(CCCOc2ccc3c(c2)C=C(c2nccn2C)C(CCc2ccccc2)O3)CCCC1 (racemic) [FCE 27051, ethyl (+-)-1-[3-(2-(2-phenylethyl)-3-(1-methyl-1H-imidazol-2-yl)-2H-1-benzopyran-6-yl)oxypropyl]cyclopentane-1-carboxylate] |  | 

Row | SMILES | IC50 [1] [nM] | LD50 at 168 h [2] [mg/kg] | inhibitory activity in vitro (rabbit arterial microsomes) [3]
6 | Cn1ccnc1C1=Cc2cc(OCCCC(C)(C)C(=O)NC3CCCCC3)ccc2OC1CCc1ccc(F)cc1 (racemic) [FCE 27116, (+-)-5-[2-(2-(4-fluorophenyl)ethyl)-3-(1-methyl-1H-imidazol-2-yl)-2H-1-benzopyran-6-yl]oxy-2,2-dimethyl-N-cyclohexylpentanamide] | 39.9 | > 800 | 
